Test [1] has as its target T1, EAAT2 (Homo sapiens, UniProt P43004).
T1 construct: expressed in transfected cells; host or cells: HEK-293 (ATCC #CRL-1573)
Conditions: EAAT2 inhibitor; Tsukada et al., 2005 Neuropharmacology 48:479-491; cited from earlier work.

In test [2] the target is T1, EAAT2. Briefly: OSTA of EAAT2-mediated glutamate transport (cytosolic iGluSnFR). Particulars: for effect on EAAT2 activity (negative control): 10 mM sodium salicylate, same Na+/K+/glutamate stimulus. The class given is cell-based.
In test [3] the target is SLC26a3 (Homo sapiens, UniProt P40879). Particulars: washout after 10 mM salicylate; HEK-293 cells expressing SLC26a3.

“Also recorded” adds a separate entry of the source.

T1 sequence (P43004 whole entry, species assumed): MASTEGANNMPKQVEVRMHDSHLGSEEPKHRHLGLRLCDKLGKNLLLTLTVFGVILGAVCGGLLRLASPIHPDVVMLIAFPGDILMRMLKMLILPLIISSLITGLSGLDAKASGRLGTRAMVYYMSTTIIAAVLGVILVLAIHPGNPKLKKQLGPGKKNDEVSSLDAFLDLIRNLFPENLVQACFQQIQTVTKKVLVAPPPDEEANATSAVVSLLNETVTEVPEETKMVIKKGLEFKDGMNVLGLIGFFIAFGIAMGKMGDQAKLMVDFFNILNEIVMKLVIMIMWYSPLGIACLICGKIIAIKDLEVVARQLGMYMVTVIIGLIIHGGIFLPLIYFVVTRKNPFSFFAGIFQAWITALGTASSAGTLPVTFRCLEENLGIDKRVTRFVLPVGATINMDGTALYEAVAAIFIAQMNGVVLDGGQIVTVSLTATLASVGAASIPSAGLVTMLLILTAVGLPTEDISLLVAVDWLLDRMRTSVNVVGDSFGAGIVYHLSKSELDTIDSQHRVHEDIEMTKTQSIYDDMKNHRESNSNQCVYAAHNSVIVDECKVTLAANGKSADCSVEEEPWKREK
Sequence of SLC26a3 (P40879 whole entry, species assumed): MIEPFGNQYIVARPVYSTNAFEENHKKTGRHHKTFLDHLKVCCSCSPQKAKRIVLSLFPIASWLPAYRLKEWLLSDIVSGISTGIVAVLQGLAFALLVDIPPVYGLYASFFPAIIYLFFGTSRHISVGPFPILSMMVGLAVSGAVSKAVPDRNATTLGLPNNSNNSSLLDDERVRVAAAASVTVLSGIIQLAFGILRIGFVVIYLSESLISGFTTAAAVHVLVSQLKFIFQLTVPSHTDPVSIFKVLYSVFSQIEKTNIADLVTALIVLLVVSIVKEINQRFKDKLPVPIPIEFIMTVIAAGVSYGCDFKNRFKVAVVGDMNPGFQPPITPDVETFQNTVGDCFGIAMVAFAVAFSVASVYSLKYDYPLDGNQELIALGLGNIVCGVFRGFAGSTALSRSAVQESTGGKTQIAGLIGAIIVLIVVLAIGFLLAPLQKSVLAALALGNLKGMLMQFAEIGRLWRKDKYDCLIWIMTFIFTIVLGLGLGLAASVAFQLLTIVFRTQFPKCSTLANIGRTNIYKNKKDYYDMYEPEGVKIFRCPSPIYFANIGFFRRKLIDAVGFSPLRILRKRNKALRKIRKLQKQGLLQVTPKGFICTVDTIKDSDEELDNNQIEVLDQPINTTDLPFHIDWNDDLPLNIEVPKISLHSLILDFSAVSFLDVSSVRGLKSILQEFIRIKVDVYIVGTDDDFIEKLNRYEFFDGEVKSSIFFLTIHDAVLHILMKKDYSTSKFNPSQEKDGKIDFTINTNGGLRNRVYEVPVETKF

For `N[C@H](C(=O)O)[C@H](OCc1cccc(NC(=O)c2ccc(C(F)(F)F)cc2)c1)C(=O)O` [TFB-TBOA], the IC50 in test [1] was roughly 17 nM. For the same molecule, the “onset and washout of EAAT2 inhibition” value in test [2] (2 μM TFB-TBOA) is “rapid onset and slower washout”. For the same molecule, the “effect on EAAT2 glutamate oscillations” value in test [2] (2 μM TFB-TBOA, combined Na+/K+/glutamate stimulus (0-10 mM glutamate), HEK-293 cells) is reported as “complete abrogation of oscillating signal; also recorded: completely abolished the oscillations”.
In the case of `O=C([O-])c1ccccc1O.[Na+]` [salicylate, sodium salicylate], in test [3], the “oscillating response after washout” value is listed as “return to the initial oscillating response”. Also, the “effect on EAAT2 activity (negative control)” value is on record as “relative indifference” in test [2] (HEK-293 cells) and “no effect on EAAT2 activity” in test [2] (HEK-293 cells, listed as sodium salicylate).

For orientation: IC50 means the concentration that inhibits the measured activity by half.
